Earlier results, collected in US20190175504A1, “Carbohydrate-Derivatized Liposomes for Targeting Cellular Carbohydrate Recognition Domains of Ctl/Ctld Lectins, and Intracellular Delivery of Therapeutically Active Compounds” (RODOS BioTarget GmbH, priority 2004, published 2019).

Assays:
[1] = test system: mouse model of liver damage

SMILES	antifibrotic effect (bile duct-ligated mouse)	pathologic values of liver parameters (e.g., ALT) (HCV-positive patients)	apoptosis in liver damage [1]
C[C@H](NC(=O)C(=O)Nc1ccccc1C(C)(C)C)C(=O)N[C@@H](CC(=O)O)C(=O)COc1c(F)c(F)cc(F)c1F [IDN-6556]	proven beneficial as an antifibrotic agent	significantly reduces	–
Cc1ccc(C(=O)Nc2ccc(S(=O)(=O)O)c3cc(S(=O)(=O)O)cc(S(=O)(=O)O)c23)cc1NC(=O)c1cccc(NC(=O)Nc2cccc(C(=O)Nc3cc(C(=O)Nc4ccc(S(=O)(=O)O)c5cc(S(=O)(=O)O)cc(S(=O)(=O)O)c45)ccc3C)c2)c1 [suramin]	–	–	inhibit apoptosis
